Laboratory results from US8048918B2, “Treatment of hyperproliferative diseases” (Vampex Limited, priority 2000, dated 2011).
Where no end group is shown, it is not given here.

Legend:
[1] = molecular target: T1, RalDHI (Rattus norvegicus, UniProt P51647); conditions: Penzes et al. 1997; Chen and Juchau 1997; cited from earlier work
T1 sequence (P51647 1-501): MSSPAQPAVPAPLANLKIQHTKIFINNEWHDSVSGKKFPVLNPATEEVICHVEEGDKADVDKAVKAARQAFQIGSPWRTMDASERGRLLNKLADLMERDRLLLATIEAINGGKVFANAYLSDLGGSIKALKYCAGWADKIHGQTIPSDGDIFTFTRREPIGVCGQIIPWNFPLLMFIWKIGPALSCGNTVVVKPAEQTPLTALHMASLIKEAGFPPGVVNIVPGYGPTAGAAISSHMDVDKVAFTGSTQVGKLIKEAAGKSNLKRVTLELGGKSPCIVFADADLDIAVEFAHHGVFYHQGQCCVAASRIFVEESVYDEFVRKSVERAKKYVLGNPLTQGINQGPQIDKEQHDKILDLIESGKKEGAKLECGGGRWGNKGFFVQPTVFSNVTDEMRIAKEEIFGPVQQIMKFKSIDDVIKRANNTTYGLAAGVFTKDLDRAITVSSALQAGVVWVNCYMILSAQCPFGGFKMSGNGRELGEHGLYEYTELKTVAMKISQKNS

[2] = system: human dermal fibroblast cells; experiment: proliferation assay of human dermal fibroblast cells; assay type: cell-based; conditions: P142 1 mg/ml, peptides 6 μM; 24 hours and 4 days after treatment; FIG. 9
Method: Fibroblast cell culture is performed essentially as described for culture of hyperproliferative psoriatic keratinocytes (Example 3), except that following irrigation with complete culture medium, the dermal portion is incubated with 1 mg/ml of collagenase (Sigma) in 20 ml DMEM in a 50 ml centrifuge tube for 16 hours at 37° C. Then 20 ml DMEM containing 5% foetal calf serum and 1% antibiotic/antimycotic solution (Gibco) is added and the cells seeded at 37° C. in DMEM medium+additions at a density of 2500 cells/cm^2 in a 25 cm^2 cell culture flask. Medium is replaced every 48 hours and cells passaged when confluent.
Fibroblast cell culture and experiments are performed essentially as described for culture of hyperproliferative psoriatic keratinocytes (above), except that following irrigation with complete culture medium, the dermal portion is processed further. Reference is made to fibroblast culture protocols set out above.
Proliferation of cells is assayed by direct cell counting essentially as for determination of proliferation in keratinocyte cell cultures. RDH, ADH, RalDH inhibitors are found to reduce proliferation.

Compound | IC50 [1] [µM] | fibroblast proliferation (cell numbers) [2]
CC(C)=CCCC(C)=CC=O [Citral, 3,7-dimethyl-2,6-octadienal] | 1 | –
GRVRLLNNWDVCA | – | greater reduction in proliferation
